ChEMBL document CHEMBL6115038, “Immunoproteasome as a Target for Prodrugs” (J Med Chem, 2025)
pIC50: −log10 of the molar value. Calls of active or inactive are those of the source. The rule behind the calls is not given here. Peptide text beside a SMILES is read from it. * marks the point of attachment. Doxorubicin(3'-N) = COc1cccc2c1C(=O)c1c(O)c3c(c(O)c1C2=O)C[C@@](O)(C(=O)CO)C[C@@H]3O[C@H]1C[C@H](N*)[C@H](O)[C@H](C)O1; Morpholinoacetyl = O=C(CN1CCOCC1)*

What was measured:
[1] = Cytotoxicity against human AC16 [Human hybrid] cells assessed as cell viability incubated for 72 hrs by celltiter-glo assay; format: toxicity, cell-based
[2] = Prodrug release in tris HCL buffer assessed as human 20S proteasome core particle-mediated hydrolysis by measuring Dox release measured for 4 hrs in presence of PA28alpha/beta activated complex by mass spectrometry analysis; format: ADME
[3] = Prodrug release in tris HCL buffer assessed as human 20S proteasome core particle-mediated hydrolysis by measuring Dox release measured for 4 hrs by mass spectrometry analysis; format: ADME
20S proteasome [4] = assay: Prodrug release in tris HCL buffer assessed as human 20S immunoproteasome-mediated hydrolysis by measuring Dox release measured upto 8 hrs by mass spectrometry analysis; format: ADME, protein-complex assay
20S proteasome [5] = assay: Prodrug release in tris HCL buffer at pH 7.4 assessed as human 20S immunoproteasome mediated hydrolysis by measuring Dox release at 10 uM incubated for 4 hrs in presence of 37.5 to 75 nM of PA28alpha/beta activated complex by mass spectrometry analysis; format: ADME, protein-complex assay; conditions: pH 7.4, 4 h
[6] = target: T1, von Hippel-Lindau disease tumor suppressor/Bromodomain-containing protein 4 (Homo sapiens) (UniProt O60885+P40337); assay: PROTAC activity at BRD4/VHL in human Ramos cells expressing iCP assessed as induction of BRD4 degradation at 1 nM compound administered as prodrug-PROTAC incubated for 18 hrs by immunoblotting analysis; format: cell-based
T1 sequence (P40337 whole entry, looked up, other chains not shown): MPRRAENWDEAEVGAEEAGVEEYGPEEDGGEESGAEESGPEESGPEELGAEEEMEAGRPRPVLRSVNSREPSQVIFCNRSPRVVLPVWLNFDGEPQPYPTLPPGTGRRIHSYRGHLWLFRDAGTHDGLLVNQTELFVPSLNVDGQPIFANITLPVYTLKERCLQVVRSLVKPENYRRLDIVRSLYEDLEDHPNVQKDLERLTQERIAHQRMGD

Ramos [7] = assay: Cytotoxicity against human Ramos cells assessed as cell viability incubated for 24 hrs by celltiter-glo assay; format: functional, cell-based
Ramos [8] = assay: Cytotoxicity against human Ramos cells assessed as cell viability incubated for 72 hrs by celltiter-glo assay; format: functional, cell-based
[9] = Stability in human serum incubated for 1 hr by mass spectrometry analysis; format: ADME, cell-free
[10] = Cytotoxicity against human AC16 [Human hybrid] cells assessed as cell viability at 20 uM incubated for 72 hrs by celltiter-glo assay relative to control; format: toxicity, cell-based; conditions: read-out: Activity
Raji = assay: Cytotoxicity against human Raji cells assessed as cell viability at 0.0001 to 100 uM incubated for 72 hrs by celltiter-glo assay; format: functional, cell-based; conditions: dose 0.0001-100 µM
MM.1R = assay: Cytotoxicity against human MM1.R cells assessed as cell viability at 0.0001 to 100 uM incubated for 72 hrs by celltiter-glo assay; format: functional, cell-based; conditions: dose 0.0001-100 µM
[11] = Cytotoxicity against human AC16 [Human hybrid] cells assessed as cell viability at 10 uM incubated for 72 hrs by celltiter-glo assay relative to control; format: toxicity, cell-based; conditions: read-out: Activity
[12] = Cytotoxicity against human AC16 [Human hybrid] cells expressing iCP assessed as cell viability incubated for 24 hrs by celltiter-glo assay; format: toxicity, cell-based
[13] = target: T1, von Hippel-Lindau disease tumor suppressor/Bromodomain-containing protein 4 (Homo sapiens); assay: PROTAC activity at BRD4/VHL in human Ramos cells expressing iCP assessed as induction of BRD4 degradation at 100 nM compound administered as prodrug-PROTAC incubated for 18 hrs in presence of ONX-0914 by immunoblotting analysis; format: cell-based
20S proteasome [14] = assay: Prodrug release in tris HCL buffer at pH 7.4 assessed as human 20S immunoproteasome mediated hydrolysis by measuring Dox release at 10 uM incubated for 90 mins in presence of PA28alpha/beta activated complex by fluorescence based analysis; format: ADME, protein-complex assay; conditions: pH 7.4, 1.5 h
20S proteasome [15] = assay: Prodrug release in tris HCL buffer at pH 7.4 assessed as human 20S immunoproteasome mediated hydrolysis by measuring Dox release at 10 uM incubated for 4 hrs in presence of PA28alpha/beta activated complex by mass spectrometry analysis; format: ADME, protein-complex assay; conditions: pH 7.4, 4 h

COc1cccc2c1C(=O)c1c(O)c3c(c(O)c1C2=O)C[C@@](O)(C(=O)CO)C[C@@H]3O[C@H]1C[C@H](N)[C@H](O)[C@H](C)O1 [DOXORUBICIN]
IC50 at 72 h [1]: 233 nM

COc1cccc2c1C(=O)c1c(O)c3c(c(O)c1C2=O)C[C@@](O)(C(=O)CO)C[C@@H]3O[C@H]1C[C@H](NC(=O)[C@H](Cc2ccc(O)cc2)NC(=O)[C@@H](NC(=O)[C@H](CC(C)C)NC(=O)[C@H](CC(C)C)NC(C)=O)C(C)C)[C@H](O)[C@H](C)O1 (Ac-LLVY-{Doxorubicin(3'-N)})
Drug metabolism [2]: metabolite_detected | Drug metabolism [3]: metabolite_notdetected | Drug metabolism (20S proteasome [4]): metabolite_detected | Drug metabolism (20S proteasome [5]): metabolite_notdetected

Cc1ncsc1-c1ccc([C@H](C)NC(=O)[C@@H]2C[C@@H](O)CN2C(=O)[C@@H](NC(=O)COCCCOCCNC(=O)C[C@@H]2N=C(c3ccc(Cl)cc3)c3c(sc(C)c3C)-n3c(C)nnc32)C(C)(C)C)cc1
Activity [6]: Active | pIC50 (Ramos [7]): 8.00

COc1cccc2c1C(=O)c1c(O)c3c(c(O)c1C2=O)C[C@@](O)(C(=O)CO)C[C@@H]3O[C@H]1C[C@H](NC(=O)[C@H](Cc2c[nH]c3ccccc23)NC(=O)[C@H](CCSC)NC(=O)[C@@H](NC(=O)[C@H](C)NC(=O)CN2CCOCC2)[C@@H](C)O)[C@H](O)[C@H](C)O1 (Morpholinoacetyl-ATMW-{Doxorubicin(3'-N)})
pIC50 (Ramos [8]): 5.26 | Stability [9]: Stable | viability at 72 h, 20 µM [10]: > 80% | Activity (Raji): Active | Activity (MM.1R): Active

COc1cccc2c1C(=O)c1c(O)c3c(c(O)c1C2=O)C[C@@](O)(C(=O)CO)C[C@@H]3O[C@H]1C[C@H](NC(C)=O)[C@H](O)[C@H](C)O1
viability at 72 h, 10 µM [11]: > 90%

CSCC[C@H](NC(=O)[C@@H](NC(=O)[C@H](C)NC(=O)CN1CCOCC1)[C@@H](C)O)C(=O)N[C@@H](Cc1c[nH]c2ccccc12)C(=O)Nc1ccc(COC(=O)O[C@H]2C[C@H](C(=O)N[C@@H](C)c3ccc(-c4scnc4C)cc3)N(C(=O)[C@@H](NC(=O)COCCCOCCNC(=O)C[C@@H]3N=C(c4ccc(Cl)cc4)c4c(sc(C)c4C)-n4c(C)nnc43)C(C)(C)C)C2)cc1
Activity [6]: Active | Activity [12]: Toxic | pIC50 (Ramos [7]): 8.00 | Activity [13]: inactive

COc1cccc2c1C(=O)c1c(O)c3c(c(O)c1C2=O)C[C@@](O)(C(=O)CO)C[C@@H]3O[C@H]1C[C@H](NC(=O)[C@H](C)NC(=O)[C@H](C)NC(=O)[C@H](C)NC(=O)[C@H](C)NC(C)=O)[C@H](O)[C@H](C)O1 (Ac-AAAA-{Doxorubicin(3'-N)})
Drug metabolism (20S proteasome [4]): metabolite_detected | Drug metabolism (20S proteasome [5]): metabolite_notdetected

COc1cccc2c1C(=O)c1c(O)c3c(c(O)c1C2=O)C[C@@](O)(C(=O)CO)C[C@@H]3O[C@H]1C[C@H](NC(=O)[C@H](Cc2c[nH]c3ccccc23)NC(=O)[C@H](CCSC)NC(=O)[C@@H](NC(=O)[C@H](C)NC(C)=O)[C@@H](C)O)[C@H](O)[C@H](C)O1 (Ac-ATMW-{Doxorubicin(3'-N)})
Drug metabolism (20S proteasome [14]): metabolite_detected | Drug metabolism (20S proteasome [4]): metabolite_detected | Drug metabolism (20S proteasome [15]): metabolite_detected
